# Measurements published in US9192656B2, “Methods and compositions for the treatment of cancer” (QUINTESSENCE BIOSCIENCES, INC., priority 2006, dated 2015).
# Tested on: human prostate cancer cell line (DU145)
# Test: In vivo inhibition of tumor growth, DU145 xenograft
# Parameters: species or system human tumor cells in nude mice
# Settings: for Starting volume: at start
# Protocol: Cells from a non-small cell lung cancer cell line (A549) were grown in nine T175 flasks in F12K media and 10% fetal calf serum until the cells were confluent. 4.5×10^6 cells (in 100 microliters) were injected into the right rear flank of 4-5 week old male homozygous (nu/nu) nude mice (Harlan, Madison Wis.). Tumors were allowed to grow to an average size of ≧75 mm^3 before treatments were initiated. Animals of each tumor type, with the properly sized tumors, were divided into treatment groups, including one set of animals treated weekly with vehicle (phosphate buffered saline, PBS). The vehicle and the test agents were all administered by intraperitoneal injection. Each animal was weighed twice a week during treatment. The tumors were measured twice weekly using calipers. Tumor volume (mm^3) was determined by using the formula for an ellipsoid sphere: […]
# The percent tumor growth inhibition (% TGI) is calculated by: […]
# This xenograft model was set up as in the previous example except that a human prostate cancer cell line (DU145) was used. The efficacy of wild type human RNase 1 is shown relative to docetaxel. The RNase 1 was administered at 75 mg per kg of body weight of the animal (75 mg/kg 1×wk), while the docetaxel was used at 8 mg/kg once a week. The value of n represents the number of animals in the specific treatment arm of the experiment.
# (§1) The xenograft model of this example was set up as in the previous example except that a human prostate cancer cell line (DU145) was used. The efficacy of wild type human RNase 1 is shown. The RNase 1 was administered at 75 mg per kg of body weight of the animal once per week (75 mg/kg 1×wk). The value of n represents the number of animals in the specific treatment arm of the experiment.
# as §1, with “example.” for “example except that a human prostate cancer cell line (DU145) was used.”, “three different doses: (1) 15” for “75”, “(15” for “(75”, “1×wk), (2) 75 mg/kg 1×wk, or (3) 300 mg/kg 1×wk.” for “1×wk).”
# [1] = Example 4, Table 8, RNase 1 75 mg/kg 1×wk, docetaxel 8 mg/kg once a week
# [2] = Example 8, Table 12, 75 mg/kg 1×wk
# [3] = Example 9, Table 13, set up as in the previous example, 15 mg/kg 1×wk
# [4] = Example 9, Table 13, set up as in the previous example, 75 mg/kg 1×wk
# [5] = Example 9, Table 13, set up as in the previous example, 300 mg/kg 1×wk
substance,measurement,setting,value
"Wild type human RNase 1: wild type human ribonuclease 1 (human pancreatic RNase), SEQ ID NO:1",% TGI,[1],80%
same,(Final − start),[1],478 mm^3
same,(Final − start)/Control,[1],0.20
same,Final volume,[1],539 mm^3
same,Starting volume,[1],61 mm^3
same,% TGI,[2],77%
same,(Final − start),[2],607 mm^3
same,(Final − start)/Control,[2],0.23
same,Final volume,[2],669 mm^3
same,Starting volume,[2],62 mm^3
same,% TGI,[3],0%
same,(Final − start),[3],1136 mm^3
same,(Final − start)/Control,[3],1
same,Final volume,[3],1246 mm^3
same,Starting volume,[3],110 mm^3
same,% TGI,[4],61%
same,(Final − start),[4],445 mm^3
same,(Final − start)/Control,[4],0.39
same,Final volume,[4],559 mm^3
same,Starting volume,[4],114 mm^3
same,% TGI,[5],43%
same,(Final − start),[5],652 mm^3
same,(Final − start)/Control,[5],0.57
same,Final volume,[5],766 mm^3
same,Starting volume,[5],114 mm^3
